{"source": "paper PMC8507696", "about": "“Effect of Peptide Receptor Radionuclide Therapy in Combination with Temozolomide against Tumor Angiogenesis in a Glioblastoma Model” (Cancers, 2021)", "key": {"[1]": {"tested_on": "integrin αvβ3", "test": "anti-integrin αvβ3 immunohistochemical staining of dissected tumor tissues", "assay_type": "in vivo, BALB/c nu/nu nude mice", "settings": "TMZ 5 mgkg^−1, after 2 weeks", "experimental": "Tumor tissues were harvested on day 14 after the treatment and immediately fixed in 10% formalin solution. Frozen tissue sections (5 μm) were placed onto glass slides. The tumor sections were stained with anti-integrin αvβ3 rabbit antibody (1:1000, Millipore) at 4 °C for 16 h. The sections were then incubated with anti-rabbit secondary antibody (biotinylated) at room temperature for 1 h. The detection system (Vector Laboratories, Burlingame, CA, USA) was applied according to the manufacturer’s instructions. The nuclei were counter-stained with hematoxylin (Invitrogen, Carlsbad, CA, USA). For assessment of tumor vascularization, mouse anti-human CD31 monoclonal antibody (diluted 1:40, Dako) staining was performed on acetone-fixed cryosections using a blood vessel staining kit (ECM590, Millipore Ireland, Cork, Ireland). For another assessment of integrin αvβ3 receptors in dissected tumor tissues, anti-integrin αvβ3 (SC-7312, Santa Cruz Biotech, Santa Cruz, CA, USA) was used. Primary antibody against γH2AX (diluted 1:50, Abcam) was applied to acetone-fixed cryosections and incubated overnight. […] Images were acquired using Axioscope A1 fluorescent microscope (Carl Zeiss, Jena, Germany) or AxioCam MRc5 (Carl Zeiss, Jena, Germany) and analyzed with Axiovision software (version 4.4, Carl Zeiss Meditec, Jena, Germany). […]"}, "[2]": {"tested_on": "U87-MG xenografts", "test": "combination therapy of TMZ with 188Re-IDA-D-[c(RGDfK)]2: tumor volume", "assay_type": "in vivo, BALB/c nu/nu nude mice", "settings": "TMZ 2 or 5 mgkg^−1 once a week for 14 days, n = 4", "experimental": "A suspension of human glioblastoma U87-MG cells was prepared (5 × 10^6 cellsmL^−1). A total of 0.1 mL of cell suspension was injected subcutaneously into the right flank of a 6–7-week-old male BALB/c nu/nu nude mice (20–25 g, Orient Bio Inc., Seongnam, Korea). In the case of pharmacokinetic studies of ^99mTc-IDA-D-[c(RGDfK)]2, we used tumor xenograft mice whose tumor cells were inoculated in the right shoulder and performed the SPECT imaging study when tumor volume reached 68.7 ± 18.8 mm^3 at 10 days after injection of U87-MG cells. Evaluations of integrin-targeted blocking and radiotherapy treatment on the growth of U87-MG xenografts were carried out when tumor volume reached 59.4 ± 14.9 mm^3 (For authentic “cold” Re-peptide (^185/187Re-IDA-D-[c(RGDfK)]2) treatment) and 66.2 ± 15.3 mm^3 (For radiotherapy (^188Re-IDA-D-[c(RGDfK)]2) treatment) at 10 days after injection of U87-MG cells. Experiments with vehicle, negative control peptide (^188Re-IDA-D-[c(RADfK)]2) or ^188Re-IDA-D-[c(RGDfK)]2 treatments (11.1 MBq) in U87-MG xenografts were carried out when tumor volume reached 40.3 ± 14.8 mm^3 at 9 days after injection of U87-MG cells. […]\nFor caliper measurements, tumor length (longitudinal diameter) and tumor width (transverse diameter) were measured, and the tumor volume was calculated according to the following formula: tumor volume = (length × width^2)/2."}}}
{"compound": "Cn1nnc2c(C(N)=O)ncn2c1=O", "note": "[TMZ, Temozolomide]", "values": [{"measurement": "integrin expression in tumor tissues", "setting": "[1]", "value": "reduced integrin expression"}, {"measurement": "tumor size compared with saline treatment", "setting": "[2]", "value": "significantly reduced tumor size"}]}
